SMILES strings stand for the structures.

Assay [1] has as its system BC-1 (B-Cell Non-Hodgkin's Lymphoma). As to the kind of experiment: Bliss excess, mean over the matrix (fraction); higher = more synergy. Summed up:
(§1)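 Cell lines in DMEM/F12 or RPMI with 10% FBS were plated in 1536-well plates, held 24 hours at 37°C, 5% CO2, then given two-drug dose matrices for 72 hours (DMSO typically 0.2%). Viability was read by CellTiter-Glo 2.0 luminescence and scaled as inhibition from 0 (vehicle wells) to 1 (blank wells). Combination Emax is the second-highest inhibition in the matrix; Bliss excess is observed combination effect minus expected EA + EB − EA·EB, EA and EB being single-agent effects.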

Assay [2] deals with C2BBe1 (Colorectal Carcinoma). The assay is described as above. The gist of the method:
as §1

For assay [3], the system named is HT-1197 (Bladder Carcinoma). The description is as above. The gist of the method:
as §1

Assay [4] has as its system HT-3 (Cervical Carcinoma). Described as above. Summed up:
as §1

For assay [5], the system named is JJN-3 (Plasma Cell Myeloma). The description is as above. Summed up: as §1
In assay [6] the test system is NCI-H1648 (Lung Adenocarcinoma). The assay is described as above. The gist of the method:
as §1

For assay [7], the system named is NCI-H2009 (Lung Adenocarcinoma). The description is as above. The gist of the method: as §1
In assay [8] the test system is SCC90 (Head and Neck Carcinoma). The assay is described as above. The gist of the method:
as §1

The test system of assay [9] is SK-MEL-24 (Melanoma). The description is as above. Summed up: as §1
Assay [10] relates to SUP-HD1 (Hodgkin's Lymphoma). The description is as above. The gist of the method:
as §1

Assay [11] concerns SW1463 (Colorectal Carcinoma). The assay is described as above. Summed up: as §1
The subject of assay [12] is TOV-21G (Ovarian Carcinoma). The description is as above. The gist of the method: as §1
Assay [13] relates to CAL-85-1 (Breast Carcinoma). Nature of the assay: combination Emax (second highest fraction inhibited in the dose matrix, 72 h); higher = more inhibition; extreme values may be limits of the assay. The gist of the method:
as §1

Assay [14] concerns KNS-62 (Squamous Cell Lung Carcinoma). Described as above. The gist of the method: as §1
The test system of assay [15] is L-363 (Plasma Cell Myeloma). The assay is described as above. The gist of the method: as §1
Assay [16] relates to MRK-nu-1 (Breast Carcinoma). The description is as above. Summed up: as §1
The subject of assay [17] is NCI-H1648 (Lung Adenocarcinoma). The description is as above. Summed up: as §1
Assay [18] concerns NCI-H1944 (Lung Adenocarcinoma). The assay is described as above. The gist of the method: as §1
Assay [19] concerns NCI-H2023 (Non-Small Cell Lung Carcinoma). The assay is described as above. The gist of the method:
as §1

The subject of assay [20] is TOV-21G (Ovarian Carcinoma). The description is as above. Summed up:
as §1
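For Bliss excess, mean over the matrix in this document: after 72 h of two-drug dosing.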

Regarding `CN(C)CCCOc1ccc(-c2ccc3ncc4c(c3c2)n(C2CCOCC2)c(=O)n4C)cn1` [AZD0156] + C=CCn1c(=O)c2cnc(Nc3ccc(N4CCN(C)CC4)cc3)nc2n1-c1cccc(C(C)(C)O)n1 [AZD1775] (first compound max 1 µM, partner max 1 µM), the Bliss excess in assay [1] was -0.0006; in assay [2], 0.0003; in assay [3], -0.102; in [4], -0.023; in assay [5] it was -0.0271; in [6], -0.0468. Moreover, the Bliss excess in [7] is -0.0695; in [8], -0.0542; in assay [9] it was -0.0255; in assay [10], -0.0392; in [11], -0.0323; in [12], 0.0044. For the same compound, the “combination Emax” value in assay [13] turned out to be 0.363; in assay [14] it was 0.185; in assay [15] it was 0.985; in assay [16], 0.246; in assay [17], 0.587; in assay [18], 0.618. For the same compound, the figures for the “combination Emax” value in assay [19] and in [20] were 0.633 and 0.556, respectively.
With `CN(C)CCCOc1ccc(-c2ccc3ncc4c(c3c2)n(C2CCOCC2)c(=O)n4C)cn1` [AZD0156] + CCN(CCO)CCCOc1ccc2c(Nc3cc(CC(=O)Nc4cccc(F)c4)[nH]n3)ncnc2c1 [AZD2811] (first compound max 1 µM, 7x7, partner max 1 µM), the Bliss excess in [1] was 0.0234; in assay [2], -0.0183; in [3], -0.0376; in [4] it was -0.039; in assay [5] it was 0.09; in assay [6] it was -0.0327. Moreover, the Bliss excess in assay [7] was -0.0224; in [8], -0.0021; in assay [9], -0.0401; in [10], 0.0327; in assay [11], -0.0322; in [12] it was 0.0147. The “combination Emax” value was 0.104 in assay [13]; 0.141 in assay [14]; 0.192 in [15]; 0.631 in assay [16]; 0.214 in assay [17]; 0.205 in assay [18]. The “combination Emax” value was found to be 0.252 in assay [19] and 0.266 in assay [20].
With `CN(C)CCCOc1ccc(-c2ccc3ncc4c(c3c2)n(C2CCOCC2)c(=O)n4C)cn1` [AZD0156] + C[C@@H]1COCCN1C2=NC(=NC(=C2)C3(CC3)[S@](=N)(=O)C)C4=C5C=CNC5=NC=C4 [AZD6738] (first compound max 1 µM, 7x7, partner max 10 µM), the Bliss excess was -0.0305 in assay [1]; -0.0234 in assay [2]; -0.0362 in assay [3]; 0.0031 in assay [4]; 0.161 in [5]; 0.005 in assay [6]. The Bliss excess in [7] is -0.0045; in [8], 0.0037; in assay [9], -0.0159; in assay [10] it was -0.0232; in assay [11], -0.0057; in assay [12], 0.025. For the same compound, the “combination Emax” value was determined as 0.446 in assay [13]; 0.485 in assay [14]; 0.92 in assay [15]; 0.648 in assay [16]; 0.676 in assay [17]; 0.868 in [18]. The “combination Emax” value in assay [19] turned out to be 0.836; in assay [20], 0.652.
As to `CN(C)CCCOc1ccc(-c2ccc3ncc4c(c3c2)n(C2CCOCC2)c(=O)n4C)cn1` [AZD0156] + O=C(c1cc(Cc2n[nH]c(=O)c3ccccc23)ccc1F)N1CCN(C(=O)C2CC2)CC1 [Olaparib] (first compound max 3 µM, partner max 3 µM), the Bliss excess in [1] was 0.0648; in assay [2], -0.0428; in assay [3] it was -0.0404; in assay [4], 0.0386; in assay [5] it was 0.0264; in assay [6], 0.0271. In addition, the Bliss excess was 0.16 in assay [7]; -0.0621 in assay [8]; 0.0037 in assay [9]; -0.039 in assay [10]; -0.035 in assay [11]; -0.0054 in assay [12]. The “combination Emax” value in assay [13] was determined as 0.172; in assay [14] it was 0.367; in [15] it was 0.356; in [16], 0.542; in assay [17], 0.396; in [18], 0.49. Besides, the “combination Emax” value in assay [19] is 0.369; in assay [20] it was 0.282.
Regarding `C=CCn1c(=O)c2cnc(Nc3ccc(N4CCN(C)CC4)cc3)nc2n1-c1cccc(C(C)(C)O)n1` [AZD1775] + C[C@@H]1COCCN1C2=NC(=NC(=C2)C3(CC3)[S@](=N)(=O)C)C4=C5C=CNC5=NC=C4 [AZD6738] (first compound max 1 µM, partner max 10 µM), the Bliss excess is 0.0338 in assay [1]; 0.0278 in assay [2]; -0.0057 in assay [3]; 0.0386 in [4]; 0.0559 in assay [5]; 0.0111 in [6]. The Bliss excess is 0.0987 in assay [7]; 0.0167 in [8]; -0.0189 in assay [9]; -0.0282 in assay [10]; -0.0807 in assay [11]; -0.0523 in assay [12]. Besides, the “combination Emax” value in [13] was 0.669; in assay [14], 0.565; in assay [15] it was 0.977; in [16] it was 0.802; in assay [17], 0.833; in assay [18], 0.852. The “combination Emax” value was 0.885 in [19] and 0.71 in assay [20].
Turning to `C=CCn1c(=O)c2cnc(Nc3ccc(N4CCN(C)CC4)cc3)nc2n1-c1cccc(C(C)(C)O)n1` [AZD1775] + O=C(c1cc(Cc2n[nH]c(=O)c3ccccc23)ccc1F)N1CCN(C(=O)C2CC2)CC1 [Olaparib] (first compound max 1 µM, partner max 10 µM), the Bliss excess is -0.0326 in [1]; -0.0322 in assay [2]; -0.0023 in assay [3]; -0.0055 in assay [4]; -0.0591 in assay [5]; -0.0216 in [6]. The Bliss excess in assay [7] is 0.0075; in [8], -0.0686; in assay [9] it was -0.0194; in assay [10] it was -0.0346; in assay [11] it was -0.0418; in [12], -0.0126. For the same compound, the “combination Emax” value in [13] was determined as 0.394; in assay [14] it was 0.225; in assay [15], 0.964; in [16], 0.336; in assay [17], 0.702; in assay [18], 0.41. For the same compound, the “combination Emax” value turned out to be 0.717 in assay [19] and 0.587 in [20].

Values taken from the supplement of paper PMC11061612.
